US5756538A, “Flavonoid and biflavonoid derivatives, their pharmaceutical compositions, their anxiolytic activity” (University of Strathclyde, priority 1993, dated 1998)
Read-outs that look alike come from different tables or passages of the source.

Columns and labels:
[1] = Medina et al. 1990; cited from earlier work
benzodiazepine receptors = conditions: Medina et al. 1990; cited from earlier work
[2] = test system: locus coeruleus noradrenaline; assay: Noradrenaline levels in locus coeruleus after immobilization stress; assay type: in vivo, rats; conditions: 1 mg/kg i.p., 30 min before 90-min stress session
Method: Rats were submitted to a 90-minute immobilization stress session in a plastic cylinder. The locus coeruleus was dissected out after killing by decapitation and noradrenaline assessed by HPLC with electrochemical detection. Doses were 1 mg/kg for each substance, injected i.p., 30 minutes before the stress session.

mice [3] = assay: Holeboard test (exploratory activity, sedation); assay type: in vivo, mice (male CF1)
Method: (b) Holeboard Test: consisted of a wood box (60×60×30 cm) with four 2 cm diameter holes equidistant in the floor. The number of head-dips and the time spent head-dipping were counted during 5 min. An increase in the number and the time spent head-dipping implies a greater exploratory activity.
(§1) All the injections were given intraperitoneally (i.p.). […] Testing was carried out `blind`. All data were submitted to analysis of variance (ANOVA).

mice [4] = assay: Elevated plus maze (anxiety); assay type: in vivo, mice (male CF1); conditions: for Total arm entries: 5 min test, mean ± S.E.M.
Method: (a) Elevated Plus Maze: consisted of 4 perpendicularly disposed wood arms (20×5 cm; two had 35 cm high wood walls, and two were open) linked by a central 10×10 cm square. The maze was suspended 50 cm from the room floor. Animals were placed on the central part of the maze facing a closed arm. This test has been widely validated to measure anxiety in rodents. The number of entries into and the time spent in the open and closed arms were counted during 5 min. […] Total exploratory activity (number of entries in both arms) was also determined.
as §1

mice [5] = assay: Locomotor activity test (OPTO-VARIMEX); conditions: 0.6-1 mg/kg i.p., 20 min after injection
Method: Male CF1 mice from our breeding stock weighing 28-35 g were used. The animals were placed in groups of 10-12 with free access to water and food, and maintained on a 12 h/12 h day-night cycle.
Diazepam (DZ; Hoffman-La Roche) and the flavonoids were dissolved in DMSO 40%, NaOH 0.1N (7:3: v/v) at pH 8.2 Control animals were injected with the same vehicle (VEH). RO 15-1788 (Hoffmann-La Roche) was suspended in DMSO 10%, propyleneglycol 10% in distilled water.
(c) Locomotor Activity Test: we used an OPTO-VARIMEX apparatus consisting of a glass box (36×15×20 cm) and two lateral bars with 15 light beams (0.32 cm diameter, beam spacing 2.65 cm). The apparatus detects automatically all the mouse movements, and discriminates between total and ambulatory activity. The locomotor activity (number of movements across the beams) was counted during 5 min. An increase in the number of transitions through the beams reflects an augmented locomotor activity.
The general procedure for all the tests is as follows: mice were injected with vehicle or the drug solution 20 min before the beginning of the test and put into another home cage. Ro 15-1788, a specific BZD receptor antagonist was injected 10 min before the tested drug. All the injections were given intraperitoneally (i.p.). Control mice were tested in each session, in parallel with those animals receiving the test drug or diazepam. Testing was carried out `blind`. All data were submitted to analysis of variance (ANOVA). Post-hoc comparisons between individual treatments and controls were made using Dunnett's t-test.
FIGS. 15, 16, 17 and 18 show ambulatory locomoter activity counts during a 5 min. test session in an OPTO-Varimex apparatus, 20 min. after i.p. injection with a mixture of brominated flavones (0.6,1,3 mg/kg), FIG. 15; 2' chlorinated chrysin (1,3 mg/kg); FIG. 16; 2' fluorinated chrysin (3 mg/kg), FIG. 17; 6,8 dibromoflavone, FIG. 18. Data are expressed as medians (interquartile range) of (n) number of animals.

mice [6] = assay: Horizontal wire test (muscle relaxation); assay type: in vivo, mice (male CF1)
Method: (d) Horizontal Wire Test: It consisted of an horizontally strung wire (1 mm diameter, 15 cm long), placed at 20 cm from the table. Mice were lifted by the tail, allowed to grasp the wire with their forepaws and released. […] After two trials, performed at 5 min. intervals, the test took place. A myorelaxant drug, like diazepam at high doses, will impair the ability of mice to grasp the wire. Generally, this state of muscle relaxation is commonly associated with sedation.
as §1
The test took place after two trials, executed after a 5 min interval.

benzodiazepine receptor = assay: Competitive inhibition of 3H-flunitrazepam binding to benzodiazepine receptor (cerebral cortical membranes); design: species or system bovine
Method: (Competitive inhibition of H^3 -flunitrazepam to benzodiazepine receptor)
Binding of 3H-flunitrazepam (0.7 nM) to the benzodiazepine receptor was carried out in extensively washed cerebral cortical membranes.
H^3 -flunitrazepam has a Ki of […] to the benzodiazepine receptor.
IC50 values were obtained using flavonoids at different concentrations (10^-10 to 10^-3 M).
Structure - activity relationships of several flavonoids on
the ^3 H Flunitrazepam binding to bovine brain membranes.

[7] = 1 mg/kg i.p., 20 min after injection

For `O=c1cc(-c2ccccc2)oc2cc(O)cc(O)c12` [chrysin, 5,7-dihydroxyflavone], the Anticonvulsant properties [1] is given as “anticonvulsant properties”, the “Binding properties for benzodiazepine receptors” value (benzodiazepine receptors) is given as “binding properties for benzodiazepine receptors” and the “Noradrenaline decrease in locus coeruleus provoked by immobilization stress” value [2] is given as “dampened the noradrenaline decrease”. For the same molecule, the “Potency vs diazepam on stress-provoked noradrenaline decrease” value [2] was “almost equipotent with diazepam”, the Time spent head-dipping (mice [3]; 3 mg/kg i.p.) was “significant increase in the time spent head-dipping” and the Sedative effects (mice [3]; 10 mg/kg i.p.) was “did not elicit sedative effects”. For the same molecule, the “Sedation (summary)” value (mice [3]; i.p.) was “did not exhibit sedation”, the “Percentage of entries in the open arms” value (mice [4]; [7]) was “increase in both parameters (p<0.01)” and the “Percentage of the time spent on the open arms” value (mice [4]; [7]) was “increase in both parameters (p<0.01)”. It also gave a Total arm entries (mice [4]; [7]) of 9.9 ± 0.8, a Total arm entries (mice [4]; 3 mg/kg i.p., 20 min after injection) of 8.7 ± 1.1 and a Total arm entries (mice [4]; 10 mg/kg i.p., 20 min after injection) of 10.2 ± 1.1. The “Total arm entries, with and without RO 15-1788” value (mice [4]; chrysin 1 mg/kg, RO 15-1788 3 mg/kg, F (2,49)=3.18) was “No significant differences were found”, the “Anxiolytic effect in the elevated plus maze” value (mice [4]; i.p.) was “had anxiolytic effects” and the “Total arm entries, difference from controls” value (mice [4]; i.p., doses of Table I) was “No differences were observed”. For the same molecule, the “Anxiolytic effect in the elevated plus maze” value (mice [4]; i.p., listed as CHRY) was “displayed an anxiolytic effect”, the Locomotor activity (mice [5]) was “significant increase in locomotor activity” and the “Effect in horizontal wire test / muscle relaxant effect” value (mice [6]; 0.6-30 mg/kg i.p.) was “ineffective in the same test and produced no muscle relaxant effect”. For the same molecule, the “Muscle relaxation (summary)” value (mice [6]; i.p.) was “did not exhibit sedation or muscle relaxation”, the “Benzodiazepine ligand behaviour / affinity relative to 3H-flunitrazepam” value (benzodiazepine receptor) was “benzodiazepine ligand behaviour similar to that of ^3 H-flunitrazepam” and the IC50 (benzodiazepine receptor; 3H-flunitrazepam 0.7 nM, read-out: IC50 at the benzodiazepine receptor) was 700 to 3000 nM. It also gave an IC50 (benzodiazepine receptor; bovine brain membranes, 0.7 nM 3H-flunitrazepam, read-out: 3H Flunitrazepam binding IC50) of 2000 nM.
